Key:
human RBP4 = human RBP4 (Homo sapiens (Human), UniProt P02753); test: Binding assay by Retinol-RBP4-TTR ELISA; conditions: for IC50: retinol 50 nM, His-tagged human RBP4, biotinylated human TTR, read-out: human RBP4 binding inhibitory activity (IC50 nM); for inhibition at 10 µM: at 10 μM compound, read-out: human RBP4 binding inhibitory activity(% at 10 μM)
Method: The action of the compound of the present invention to inhibit binding of RBP4 and retinol and TTR was evaluated using the Retinol-RBP4-TTR ELISA system shown below.
1F: Binding Assay by Retinol-RBP4-TTR ELISA
This ELISA system detects a complex of RBP4 and TTR based on a retinol-dependent binding of RBP4 to TTR.
His-tagged human RBP4 used was prepared in the above-mentioned 1C.
Biotinylate human TTR used was prepared in the above-mentioned 1E.
Streptavidin (20 μl) (10 μg/ml Streptavidin type II (Wako Pure Chemical Industries, Ltd.), 10 mM Tris-HCl (pH 7.5), 10 mM NaCl) was added to a 384 well black plate (Nunc MaxiSorp, Thermo Fisher Scientific Inc.), and the plate was subjected to centrifugation (1000 rpm, 1 min) and coated overnight at 4° C. The plate was washed twice with PBST (PBS, 0.05% Tween 20, 100 μl/well) and blocked with 25% Block Ace (Snow Brand Milk Products Co., Ltd., PBS, 100 μl/well). The plate was subjected to centrifugation (1000 rpm, 1 min) and incubated at room temperature for 4 hr or overnight at 4° C. The plate was washed twice with PBST (PBS, 0.05% Tween 20, 100 μl/well), and biotinylate human TTR (stock solution concentration 1.0 mg/ml) diluted 750-fold with PBST was added at 20 μl/well. The plate was subjected to centrifugation (1000 rpm, 1 min) and stood still at room temperature for 1.5 hr or overnight at 4° C. The plate was washed 3 times with PBST (100 μl/well), and His-tagged human RBP4 (stock solution concentration 0.96 mg/ml) diluted 4000-fold with a reaction buffer (50 mM Tris-HCl, 150 mM NaCl, 0.005% Tween 20, 1 mM DTT, 0.1% BSA) was added at 10 μl/well. The dilution series (8 doses from 10 mM, 200-fold concentration) of the compound was prepared with DMSO, and 1 μl of each was added to a reaction buffer (200 μl) containing retinol (50 nM) (Sigma-Aldrich Co.). A reaction buffer (200 μl) containing retinol and added with DMSO was used as a positive control, and reaction buffer (200 μl) free of retinol and added with DMSO was used as a negative control. Mixed solutions of retinol and the compound were added to the plate at 15 μl/well. The plate was stirred in a platemixer subjected to centrifugation (1000 rpm, 1 min) and reacted at room temperature for 2 hr. A 35% Block Ace solution diluted with the reaction buffer was added at 10 μl/well, centrifuged (1000 rpm, 1 min) and reacted at room temperature for 30 min. The plate was washed 3 times with PBST (100 μl/well) and SuperSignal ELISA Femto Maximum Sensitivity Substrate reagent (PIERCE, Thermo Fisher Scientific Inc.) was added at 30 μl/well, and the luminescence was measured by a platereader (Wallac).
The binding inhibitory activity of the compound was determined by 100×(positive control value-test compound value)/(positive control value-negative control value). The binding activity (IC50) was calculated from the binding inhibitory rate at each compound concentration using a graph drawing software, GraphPad Prism (GraphPad Software Inc.).

RBP4 = RBP4 (Mus musculus (Mouse), UniProt Q00724); test: Single administration test in mice, plasma RBP4 by ELISA; type: in vivo; conditions: male C57BL/6J or ICR mice, 50 mg/kg oral single dose, mean±SD; for RBP4 (% of initial/Control) 0 hr: 0 hr (just before the administration); for RBP4 (% of initial/Control) 4 hr: 4 hr after administration; for RBP4 (% of initial/Control) 7 hr: 7 hr after administration; for RBP4 (% of initial/Control) 24 hr: 24 hr after administration
Method: The action of the compounds of the present invention to reduce plasma RBP4 level was evaluated using the animal model shown below.
Male C57BL/6J and ICR mice were purchased from Charles River (Japan) and maintained on a normal diet (CE2, CLAE Japan, Inc.) and tap water. Animals were housed in a temperature-controlled room adjusted to a 12-hour light/12-hour dark cycle beginning at 7:00 and 19:00, respectively. All procedures were conducted according to the experimental animal care use committee of Takeda Pharmaceutical Company.
Male 6-12-week-old C57BL/6J or ICR mice were housed individually and fed CE2 for 4-6 days. After acclimatization, mice were divided into groups based on their body weight. Compounds were suspended in 0.5% (w/v) methylcellulose in water and given orally to mice at a dose of 50 mg/10 mL/kg of body weight (three to five mice per group). Blood samples were obtained from orbital vein with sodium heparin as an anticoagulant at time 0 hr (just before the administration), 4 hr, 7 hr, and 24 hr after the administration, followed by plasma separation by centrifugation. Plasma RBP4 levels were measured by enzyme-linked immunosorbent assay described in the following section.
Plasma samples were analyzed in duplicate for RBP4 by an enzyme-linked immunosorbent assay. Mouse recombinant RBP4 (Takeda Pharmaceutical Company) was used as standards, and the assay range was 0.313-20 ng/ml. Samples were diluted 10,000-fold with phosphate-buffered saline (PBS) (Sigma) containing 10% (w/v) BlockAce (Dainippon Sumitomo Pharma Co., Ltd). Rabbit anti-RBP4 polyclonal antibody (100 μL/well of 50 μg/mL, Hokudo Co, Ltd) was incubated in a 96-well plate (Nalge Nunc International K.K.) for overnight at 4° C. Subsequently, the plates were washed with PBS-T (Wako Pure Chemical Industries, Ltd.) and blocked with PBS containing 25% BlockAce for 1 hr at room temperature. After another washing with PBS-T, samples and standards were applied to the well, and the plates were incubated for 2 hr at room temperature. After a washing the wells, peroxidase-labeled (Dojindo Laboratories) anti-RBP4 (100 μL/well) was added to the wells, and then the plates were incubated for 1 hr at room temperature. After a final washing with PBS-T, substrate solution 3,3,5,5-tetramethylbenzidine (Sigma) was added to the wells, and the plates were placed in the dark for 5-20 min at room temperature. The reaction was stopped with 0.5 M sulphuric acid and the optical density was measured with a spectrophotometer at 450 nm. The changes in plasma RBP4 levels were expressed as % of initial/Control. All data are presented as mean±SD.

SMILES	IC50 (human RBP4) [nM]	inhibition at 10 µM (human RBP4) [%]	RBP4 (% of initial/Control) 0 hr (RBP4)	RBP4 (% of initial/Control) 4 hr (RBP4)	RBP4 (% of initial/Control) 7 hr (RBP4)	RBP4 (% of initial/Control) 24 hr (RBP4)
CC(C)(C)c1ccccc1N1CCN(C(=O)C(O)CO)CC1 (stereo not drawn) [Example 110, 3-[4-(2-tert-Butylphenyl)piperazin-1-yl]-3-oxopropane-1,2-diol]	330					
CC(C)(C)c1ccccc1N1CCN(C(=O)Nc2ccccc2)CC1 [Example 56, 4-(2-tert-Butylphenyl)-N-phenylpiperazine-1-carboxamide]	58					
CC(C)(C)c1ccccc1N1CCN(C(=O)C(=O)N2CCC(C(=O)O)CC2)CC1 [Example 89, 1-{[4-(2-tert-Butylphenyl)piperazin-1-yl](oxo)acetyl}piperidine-4-carboxylic acid]		99	100.0 ± 34.2 % of initial/Control	42.5 ± 6.0 % of initial/Control	46.6 ± 4.3 % of initial/Control	105.9 ± 27.6 % of initial/Control
CC(C)(C)c1ccccc1N1CCN(C(=O)c2ccc(OCC(=O)O)cc2)CC1 [Example 24, (4-{[4-(2-tert-Butylphenyl)piperazin-1-yl]carbonyl}phenoxy)acetic acid]		100	100.0 ± 36.4 % of initial/Control	30.9 ± 2.7 % of initial/Control	32.2 ± 2.2 % of initial/Control	73.1 ± 25.6 % of initial/Control
CC(C)(C)c1ccccc1N1CCN(C(=O)c2ccc(SCC(=O)O)nc2)CC1 [Example 25, [(5-{[4-(2-tert-Butylphenyl)piperazin-1-yl]carbonyl}pyridin-2-yl)sulfanyl]acetic acid]		100	100.0 ± 7.3 % of initial/Control	45.0 ± 1.9 % of initial/Control	57.6 ± 5.6 % of initial/Control	75.8 ± 6.0 % of initial/Control
CC(C)(C)c1ccccc1N1CCN(C(=O)c2cc(OCC(=O)O)no2)CC1 [Example 216, [(5-{[4-(2-tert-Butylphenyl)piperazin-1-yl]carbonyl}isoxazol-3-yl)oxy]acetic acid]		100	100.0 ± 16.6 % of initial/Control	43.4 ± 4.7 % of initial/Control	36.9 ± 1.0 % of initial/Control	66.4 ± 28.1 % of initial/Control
CC(C)(C)c1ccccc1N1CCN(C(=O)C(=O)Nc2ccc(OCC(=O)O)cc2)CC1 [Example 201, [4-({[4-(2-tert-Butylphenyl)piperazin-1-yl](oxo)acetyl}amino)phenoxy]acetic acid]		99	100.0 ± 9.8 % of initial/Control	65.0 ± 0.7 % of initial/Control	60.3 ± 1.0 % of initial/Control	100.2 ± 13.6 % of initial/Control
CC(C)(C)c1ccccc1N1CCN(C(=O)c2ncoc2CCC(=O)O)CC1 [Example 178, 3-(4-{[4-(2-tert-Butylphenyl)piperazin-1-yl]carbonyl}-1,3-oxazol-5-yl)propanoic acid]		100	100.0 ± 12.8 % of initial/Control	70.1 ± 1.8 % of initial/Control	67.0 ± 2.6 % of initial/Control	123.3 ± 14.2 % of initial/Control
CC(C)(C)c1ccccc1N1CCN(C(=O)CCC(=O)O)CC1 [Example 53, 4-(4-(2-tert-Butylphenyl)piperazin-1-yl)-4-oxobutanoic acid]		100	100.0 ± 29.7 % of initial/Control	39.9 ± 3.4 % of initial/Control	30.2 ± 1.3 % of initial/Control	93.6 ± 15.1 % of initial/Control
Cc1ccc(N2CCN(C(=O)C(=O)O)CC2)c(C(C)(C)C)c1 [Example 82, [4-(2-tert-Butyl-4-methylphenyl)piperazin-1-yl](oxo)acetic acid]		99	100.0 ± 12.5 % of initial/Control	54.6 ± 4.1 % of initial/Control	74.2 ± 15.5 % of initial/Control	101.5 ± 9.7 % of initial/Control
CC(C)(C)c1ccccc1N1CCN(C(=O)C23CC4CC(CC(C(=O)O)(C4)C2)C3)CC1 [Example 1, 3-{[4-(2-tert-Butylphenyl)piperazin-1-yl]carbonyl}adamantane-1-carboxylic acid]	95					
CC(C)(C)c1ccccc1N1CCN(C(=O)c2c[nH]cn2)CC1 [Example 3, 1-(2-tert-Butylphenyl)-4-(1H-imidazol-4-ylcarbonyl)piperazine]	3.8					
CC(C)(C)c1ccccc1N1CCN(C(=O)c2ccc(-c3noc(=O)[nH]3)cc2)CC1 [Example 19, 3-(4-{[4-(2-tert-Butylphenyl)piperazin-1-yl]carbonyl}phenyl)-1,2,4-oxadiazol-5(4H)-one]	49					
CC(C)(C)c1ccccc1N1CCN(C(=O)c2ccc(C(=O)O)cc2)CC1 [Example 34, 4-{[4-(2-tert-Butylphenyl)piperazin-1-yl]carbonyl}benzoic acid]	480					
CC(C)(C)c1ccccc1N1CCN(C(=O)c2ccc(OCC3CCNCC3)cc2)CC1 [Example 41, 1-(2-tert-Butylphenyl)-4-{[4-(piperidin-4-ylmethoxy)phenyl]carbonyl}piperazine]	250					
CC(C)(C)c1ccccc1N1CCN(C(=O)CC2NC(=O)NC2=O)CC1 (stereo not drawn) [Example 90, 5-{2-[4-(2-tert-Butylphenyl)piperazin-1-yl]-2-oxoethyl}imidazolidine-2,4-dione]	34					

Source: US8853215B2, “Derivatives of N-acyl-N′-phenylpiperazine useful (inter alia) for the prophylaxis or treatment of diabetes” (Takeda Pharmaceutical Company Limited, priority 2009, dated 2014)
